Experimental data published in patent publication US10280174B2, “Salt of fused pyrimidine compound and crystal thereof” (TAIHO PHARMACEUTICAL CO., LTD., priority 2015, dated 2019).

Columns and labels:
[1] = target: recombinant human BTK protein (Homo sapiens (Human), UniProt Q06187); test: Measurement of BTK inhibitory activity (in vitro); format: biochemical; conditions: ATP 45 μM, FL-Peptide 2 substrate
Description: In a condition set for a method of measuring inhibitory activity in vitro of the compounds against BTK kinase activity, FL-Peptide 2 was used as a substrate, since it was described in a price list of LabChip (Registered trademark) series sample consumables of PerkinElmer Co., Ltd. that FL-Peptide 2 corresponded to a substrate peptide in a measurement of BTK kinase activity. The refined recombinant human BTK protein used in the test was purchased from Carna Biosciences, Inc.
With regard to the measurement of the inhibitory activity of the compounds, firstly, monofumarate of Compound A was diluted stepwise with dimethyl sulfoxide (DMSO). Subsequently, BTK protein, a substrate peptide (final concentration was 1 μM), magnesium chloride (final concentration was 10 mM), ATP (final concentration was 45 μM), and a DMSO solution of the test compounds (final concentration of DMSO was 5%) were added to a buffer solution for kinase reaction (20 mM HEPES (pH 7.5), 2 mM dithiotheitol, 0.01% Triton X-100), and after the solution was incubated for 40 minutes at 25° C., a kinase reaction was carried out. […] Finally, a substrate peptide that was not phosphorylated (S) and a phosphorylated peptide (P) were separated and detected by microchannel capillary electrophoresis with a LabChip EZ Reader II (PerkinElmer, Inc.). […]

[2] = Solid stability test (acceleration test), 40° C./75% RH; format: physicochemical; conditions: for total mass of analogous substance: 4 weeks
Protocol: Solid stability was measured under the following conditions, with respect to monofumarate of Compound A, hemifumarate of Compound A, hemitartrate of Compound A and monophosphate of Compound A which were obtained in the Examples and the Reference Examples, when they were stored for 2 weeks or 4 weeks at 40° C./75% RH (sealed condition and opened condition).
Storage condition: 40° C./75% RH (Sealed and Opened) (Opened refers to a condition where a glass container has the lid removed, and is covered with a KimWipe).
Points of measurement: 2 weeks and 4 weeks
(§1) Storage amount: About 30 mg
(§2) Storage container: Brown glass container
(§3) Method of preparing sample solution: Sample was dissolved in 50% acetonitrile such that a concentration of the sample would be 0.4 mg/mL.
Mass of analogous substance in the sample solution was measured by HPLC analysis. Handling of the devices including data processing was based on the method and the process indicated in each device. (Device: Shimadzu Corporation SIL-HTc/LC-20AB)
Column: InertSustein C18, 4.6×150 mm, 3 μm, manufactured by GL Sciences Inc.
MS detection: ESI positive
Column temperature: 40° C.
Column flow rate: 1.0 mL/min
Mobile phase: A; 10 mmol/L phosphate buffer (pH 6.0): Acetonitrile mixed solution (17:3), B; Acetonitrile
Amount of injection: 5 μL
In the Table, A, B and C refer to percentages of the total mass of analogous substance of less than 0.1%, 0.1% or more and less than 0.5%, and 0.5% or more, respectively. Incidentally, those marked with * were measured at 2 weeks' time and the others were measured at 4 weeks' time.

[3] = Blood concentration measurement test after oral administration; conditions: mice
Protocol: These administration solutions were orally administered to mice (Balb/cA) which had been bred under a feeding condition, at a dose of 10 mL per 1 kg body weight, with a sonde for oral administration. After the administration, the mice were returned to a cage for mice and conditions were checked. Inside the cage was provided with a condition where water and food were accessible ad libitum. After 0.25, 0.5, 1, 2, 4 and 6 hours from the administration, the mice were anesthetized with isoflurane, and 60 μL of blood was collected from orbital sinus with a capillary blood collection tube.
The collected blood was ice cooled, and blood plasma was separated by a centrifugal operation. The mice after the blood collection was returned to an animal breeding cage, and conditions after recovery from the anesthesia were checked. When the last blood collection was finished, the mice were euthanized by cervical dislocation, after a level check of isoflurane anesthesia.
AUC0-6 hr, Cmax and Tmax were calculated by linear-log trapezoid method with Phoenix WinNonlin (v6.3.0) which is a software manufactured by Pharsight Corporation, from a concentration of Compound A in each blood plasma measured by MRM method with LC-MS/MS.

[4] = Solid stability test (severe test), 60° C.; format: physicochemical
Protocol: Solid stability was measured under the following conditions, with respect to monofumarate of Compound A, hemitartrate of Compound A and monophosphate of Compound A which were obtained in the Examples and the Reference Examples, when they were stored for 2 weeks or 4 weeks at 60° C.
Storage condition: 60° C. (Sealed)
Point of measurement: 2 weeks and 4 weeks
as §1, §2, §3
In the Table, A and B refer to percentages of the total mass of analogous substance of less than 0.1%, and 0.1% or more and less than 0.5%, respectively. Incidentally, the value marked with * was measured at 2 weeks and the others were measured at 4 weeks.

A431 cells / TMD8 cells = test: Proliferation inhibitory activity against cell lines expressing BTK and EGFR, and selectivity; format: cell-based, human
Description: TMD8 cells, which are of a diffuse large B-cell lymphoma cell line expressing BTK, were suspended in RPMI1640 medium (manufactured by Life Technologies Corp.) containing 10% fetal bovine serum. A431 cells, which are of an EGFR-overexpressing, highly activated human epidermoid carcinoma cell line, were suspended in DMEM, high glucose medium (manufactured by Life Technologies Corp.) containing 10% fetal bovine serum. The cell suspensions were inoculated into each well of 384-well flat-bottomed microplates, and the cells were cultured for 1 day at 37° C. in an incubator containing 5% carbon dioxide gas. […] A DMSO solution of the test compounds was diluted with the medium used in the suspension of the each cell, and this was added to each of the wells of the cell culture plates such that the final concentration of DMSO would be 0.2%. The cells were further cultured for 3 days at 37° C. in an incubator containing 5% carbon dioxide gas. […] Proliferation inhibition ratio (%)=(C−T)/(C−C0)×100
C0: Luminescence intensity of a well measured before the addition of the test compound

[5] = Moisture absorption/desorption test; format: physicochemical; conditions: for Weight change ratio, Adsorption / Weight change ratio, Desorption: 25° C.
Protocol: Moisture absorption/desorption test was carried out with respect to Compound A, monofumarate of Compound A, hemifumarate of Compound A, hemitartrate of Compound A and monophosphate of Compound A, to research the presence or absence of the characteristic of channel hydrate.
In the moisture absorption/desorption test, measurements were carried out according to the following conditions.
A dedicated quartz holder was filled with about from 5 to 10 mg of sample, and a weight of the sample at each humidity was measured and recorded in a continuous manner under the following conditions. Handling of the devices including data processing was based on the method and the process indicated in each device.
Device: VTI SA+ (manufactured by TA Instruments Inc.)
Drying temperature: 60° C.
Temperature rising speed: 1° C./min.
Equilibrium in drying: It is confirmed that no reduction of 0.01 wt % occurs in 5 minutes, in a range not exceeding 300 minutes.
Temperature for measurement: 25° C.
Equilibrium in humidification: It is confirmed that no increase of 0.01 wt % occurs in 5 minutes, in a range not exceeding 120 minutes.
Relative humidity program: Raised by 5% RH from 5% RH to 95% RH, and lowered by 5% RH from 95% RH to 5% RH.

[6] = 50 mg/kg in terms of Compound A, 0.5% HPMC suspension, plasma Compound A

Sequence of recombinant human BTK protein (Q06187 whole entry): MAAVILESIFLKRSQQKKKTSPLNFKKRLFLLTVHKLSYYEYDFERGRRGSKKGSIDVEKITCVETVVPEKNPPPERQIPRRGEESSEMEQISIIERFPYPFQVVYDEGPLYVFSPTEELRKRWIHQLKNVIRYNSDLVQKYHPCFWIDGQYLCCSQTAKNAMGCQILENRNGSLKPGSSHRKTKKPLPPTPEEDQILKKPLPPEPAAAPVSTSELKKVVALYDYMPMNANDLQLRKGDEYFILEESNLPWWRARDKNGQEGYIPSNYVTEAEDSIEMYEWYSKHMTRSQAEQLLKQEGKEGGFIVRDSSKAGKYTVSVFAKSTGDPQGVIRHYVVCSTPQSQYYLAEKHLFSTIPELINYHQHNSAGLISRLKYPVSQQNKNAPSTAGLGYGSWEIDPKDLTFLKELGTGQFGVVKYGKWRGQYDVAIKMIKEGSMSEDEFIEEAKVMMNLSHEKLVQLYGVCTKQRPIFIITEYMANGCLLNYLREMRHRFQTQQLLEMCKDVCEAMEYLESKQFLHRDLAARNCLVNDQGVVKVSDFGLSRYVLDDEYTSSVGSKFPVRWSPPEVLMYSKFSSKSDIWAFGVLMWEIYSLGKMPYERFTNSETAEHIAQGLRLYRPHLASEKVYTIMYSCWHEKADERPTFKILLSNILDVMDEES

With `C=CC(=O)N1CCC[C@@H](n2nc(C(=O)Nc3nc4ccccc4o3)c3c(N)ncnc32)C1.O=C(O)/C=C/C(=O)O` [monofumarate of Compound A, (R)-1-(1-acryloylpiperidin-3-yl)-4-amino-N-(benzo[d]oxazol-2-yl)-1H-pyrazolo[3,4-d]pyrimidine-3-carboxamide.monofumarate] the IC50 [1] was 1.19 nM, the “total mass of analogous substance” value ([2]; Opened) was “A (less than 0.1%)” and the “total mass of analogous substance” value ([2]; Sealed) was “A (less than 0.1%)”. For the same molecule, the “solid stability (in words)” value ([2]; compared to hemitartrate or monophosphate) was “excellent solid stabilities”, the “Cmax relative to that of Compound A” value ([3]; 50 mg/kg) was “about two fold” and the AUC0-6 hr [3, 6] was 7.33 µM·h. For the same molecule, the Cmax [3, 6] was 7.63 µM, the Tmax [3, 6] was 15 min and the “total mass of analogous substance” value ([4]; 60° C. (Sealed), 4 weeks) was “A (less than 0.1%)”. The “solid stability (in words)” value ([4]; 60° C., compared to hemitartrate or monophosphate) was “excellent solid stabilities”, the “BTK inhibition selectivity in the cell proliferation inhibition ratio relative to Comparative compound 1” value (A431 cells / TMD8 cells; A431/TMD8) was “about 65 times” and the “A431 cell proliferation inhibition ratio/TMD8 cell proliferation inhibition ratio” value (A431 cells / TMD8 cells; GI50 based, 3 days culture, CELLTITER GLO) was 7643. The “Weight change ratio, Adsorption” value ([5]; relative humidity 5%) was 0.01%, the “Weight change ratio, Desorption” value ([5]; relative humidity 5%) was 0.05% and the “Weight change ratio, Adsorption” value ([5]; relative humidity 20%) was 0.14%. For the same molecule, the “Weight change ratio, Desorption” value ([5]; relative humidity 20%) was 0.17%, the “Weight change ratio, Adsorption” value ([5]; relative humidity 40%) was 0.30% and the “Weight change ratio, Desorption” value ([5]; relative humidity 40%) was 0.33%. The “Weight change ratio, Adsorption” value ([5]; relative humidity 60%) was 0.37%, the “Weight change ratio, Desorption” value ([5]; relative humidity 60%) was 0.41% and the “Weight change ratio, Adsorption” value ([5]; relative humidity 80%) was 0.45%. The “Weight change ratio, Desorption” value ([5]; relative humidity 80%) was 0.49%, the “Weight change ratio, Adsorption” value ([5]; relative humidity 95%) was 0.60% and the “Weight change ratio, Desorption” value ([5]; relative humidity 95%) was 0.60%. The “mass change (increase)” value ([5]; relative humidity of 95%) was “less than 1%”.
